Results reported in US7482008B1, “Human T cell reactive feline protein (TRFP) isolated from house dust and uses therefor” (Merck Patent GmbH, priority 1989, dated 2009).

Legend:
Type in all cases: cell-based, human
[1] = test system: T cells from cat allergic patients; assay: T cell proliferation of TRFP-primed T cells from cat allergic patients (tritiated thymidine), Example 5 Part A; conditions: for secondary T cell response of patient 131: FIG. 8
Procedure: Peripheral blood mononuclear cells (PBMC) were purified from 60 ml of heparinized blood from cat allergic patients. PBMC were subsequently treated as described below, although in individual cases, the length of time of cultivation with IL-2 and/or IL-4 and the specific peptides used for stimulation varied.
10 ml of PBMC from patient 131 at 10^6 /ml were cultured at 37° C. for 7 days in the presence of 5 μg purified TRFP/ml RPMI-1640 supplemented with 5% pooled human AB serum. Viable cells were purified by Ficoll-Hypaque centrifugation and cultured for three weeks at 5 units recombinant human IL-2/ml and 5 units recombinant human IL-4/ml. The resting T cells were then restimulated (secondary) with 5 μg TRFP at 2×10^5/ml in the presence of irradiated (3500 Rads) autologous PBMC at a concentration of 5×10^5/ml for three days, purified by Ficoll-Hypaque centrifugation and grown in 5 units IL-2 and 5 units IL-4/ml for two weeks. For assay, 2×10^4 resting secondary T cells were restimulated (tertiary) in the presence of 5×10^4 irradiated (3500 Rads) autologous PBMC or 2×10^4 transformed B cells (20,000 Rads) with various concentrations of allergens or their fragments in a volume of 200 microliters in a 96-well round bottom assay plates for 3 days. Each well then received 1 μCurie tritiated (methyl) thymidine for 16 hours. The counts incorporated were collected onto glass fiber filters and processed for liquid scintillation counting.
Antigens used: T cell reactive feline protein (TRFP), Hollister-Stier cat epithelium skin test reagent (CST), IPC ragweed pollen extract (pollen), and synthetic peptides derived from TRFP protein sequence (See FIGS. 6 and 7). Positive T cell proliferation is for these experiments was considered to be greater than 2.5 times the media control (T cells and antigen presenting cells alone).
Alternatively, PBMC were treated as follows: The primary stimulated cells were cultured in IL-2/IL-4 for two weeks. The resting T cells derived from this culture were tested in a secondary assay with some, but not all, of the above allergens. […] This type of epitope analysis has allowed the definition of T cell epitopes present in TRFP.

[2] = test system: T cells from cat-allergic patients; assay: Secondary proliferation assay of T cells primed with TRFP, peptide YXZ or peptide YZX
Procedure: The human cat allergic T cell response to peptides produced as above was examined. […] Peptide YZX was cleaved with thrombin as described in Example 25. Viable cells were then purified by Ficoll-Hypaque centrifugation and cultured for 2 additional weeks in RPMI-1640/5% AB serum containing 5 units recombinant human IL-2/ml and 5 units recombinant human IL-4/ml. The resting T cells were then tested in a secondary proliferation assay using a 96 well microtiter plate to assess T cell responses to various TRFP proteins or peptides (TRFP antigens). For assay, 2×10^4 resting T cells were cultured for 3 days at 37° C. in the presence of 2×10^4 autologous Epstein-Barr virus transformed B cells (25,000 Rads) as antigen presenting cells with various concentrations of antigen in 200 μl per well. Each well then received 1 μCi tritiated thymidine for 16 hours. The counts incorporated were collected onto glass fiber filters and processed for liquid scintillation counting. The stimulation indices for responses to each antigen were then calculated as the maximum CPM in response to antigen divided by the medium control CPM. A stimulation index of 2.5 was considered to be a positive T cell response. A summary of the results of 3 such experiments (patients 522, 519, and 386 is shown in FIG. 35a, FIG. 35b and FIG. 35c). As compared to the experiments shown in FIGS. 35a and 35b in the experiment shown in […], Fel-1.4 (chain 1, amino acid residues 6-17) was substituted for Fel-1.2 (chain 1, amino acid residues 1-17) and Fel-33.3 (chain 2, amino acid residues 26-40) was substituted for Fel-18 (chain 2, amino acid residues 23-48) in order to more closely resemble the constituent amino acids of peptides X and Z. In addition, in this experiment one peptide derived from the Y-Z junction of peptide YZX (amino acid residues 50-55 from chain 1 of TRFP and amino acid residues 14-19 from chain 2 of TRFP) and one peptide derived from the Z-X junction of peptide YZX (amino acid residues 34-39 of chain 2 of TRFP and amino acid residues 7-12 of chain 1 of TRFP) were synthesized and tested. These junction peptides were produced in order to determine whether these areas of peptide YZX produce a non-native epitope when formed in the peptide.

[3] = test system: PBMC from cat-allergic patients; assay: IL-2, IFN-gamma and IL-4 measurements by PCR in primary 36 hour PBMC culture; conditions: Patient 409 primary 36 hour culture
Procedure: Peripheral blood mononuclear cells (PBMC) were purified from cat-allergic patients as described in Example 5. Five×10^6 PBMC were cultured at 2×10^6/ml for 36 hours in the presence of medium only, 20 μg purified TRFP/ml or 50 μg peptide/ml. The cells were then washed two times with phosphate buffered saline (PBS, pH 7.2) and lysed with 2 ml […] guanidinium isothiocyanate, 0.5% Sarkosyl, 5 mM sodium citrate, 0.1 M 2-mercaptoethanol, pH 7.0. The lysate was then forced through a 26 gauge needle to shear genomic DNA, and was layered onto a 2 ml cushion of 5.7 M CsCl, 0.01 M EDTA, pH 7.5 in diethylpyrocarbonate (DEPC)-treated water. The lysate was centrifuged at 35,000 RPM in a Beckman SW41 rotor for 18 hours at 20° C. The RNA pellet was resuspended in 0.4 ml TE (10 mM Tris, 1 mM EDTA), pH 7.5, 0.1% SDS, and then extracted three times with 0.5 ml phenol/0.2 ml chloroform. The RNA was then precipitated on dry ice with 2.5 volumes ice-cold ethanol, 1/10 volume 3 M sodium acetate, pH 5.2 in DEPC-treated water, rinsed once with 70% ethanol in DEPC-treated water, and dried. The RNA pellet was resuspended in 2 μl TE., pH 7.5 in DEPC-treated water.
Total cellular RNA was converted to cDNA using the Superscript kit (BRL, Bethesda, Md.). Two μl of RNA were added to one μl oligo (dT)12-18 (500 μg/ml) and 9 μl water. The sample was heated to 70° C. for 10 minutes and ice quenched. Four μl 5× buffer were added to the sample along with 2 μl 0.1 M DTT and 1 μl dNTP mix (10 mM each, dATP, dCTP, dGTP, dTTP). One μl reverse transcriptase (200U) was added and the reaction was carried out for one hour at 42° C. The reaction was terminated by incubation of the sample at 90° C. for five minutes and stored at −80° C.
Ten-fold serial dilutions of T cell cDNA in 10 mM TRIS, pH 7.5 were amplified using the standard kit and protocol recommended by Perkin Elmer-Cetus (Redwood City, Calif.). Each sample received 26.65 μl water, 5 μl ×PCR buffer, 8 μl of dNTP mix (1.25 mM each of dATP, dCTP, dGTP and dTTP), 0.1 μl alpha 32P-dCTP (3000 Ci/mmol), 0.25 μl AmpliTaq, 5 μl cDNA and 5 μl cytokine-specific 5′ and 3′ primers (20 micromolar). The primers used for most cytokines and the beta-actin control were purchased from Clontech (Redwood City, Calif.). The human IL-4 primers were purchased from Research Genetics (Huntsville, Ala.) and had the following sequences: 5′ hIL-4 primer (SEQ. ID. NO: 58):
The PCR products were extracted once with 25 μl chloroform and 25 μl of each sample were then electrophoresed on an 8% polyacrylamide gel at 250 V. The gel was dried and exposed to pre-flashed x-ray film. Several exposures of each gel were then scanned using a Shimadzu flying spot laser densitometer. Values on the linear portion of the titrations were then compared to the medium control values to obtain a stimulation index for each sample. Primers for beta-actin were included as a control for general cDNA levels in each sample. Where the medium control values are not detectable, the lowest measurable response was set at 1.00. In other experiments, levels of cytokine cDNA can be compared directly with previously amplified cytokine specific cDNAs as standards. Thus, absolute levels of particular cytokine cDNAs can be compared from one sample to another and from one experiment to another. In this experiment, IL-2, IL-4 and IFN-gamma levels were measured. As shown, in this particular cat-allergic patient, peptides such as Fel 18 generate more IL-4 than certain other TRFP-derived peptides (Fel 14 and Fel 17). This analysis will be expanded to studies of other cytokines involved in the generation of allergic responses, such as IL-5, IL-8, IL-9, TGF-beta. Samples of cDNA from each treatment can also be saved for later analysis once additional cytokines are identified and sequenced. Peptides generating a spectrum of cytokines favorable for the generation of allergic responses can be avoided for therapeutic use in the treatment of cat allergy. […]

[4] = Table 3, chain #2 TRFP peptides
[5] = patient 522, T cells primed with YXZ
[6] = Table 2, chain #1 TRFP peptides, average SI of responding patients multiplied by percent of patients with positive response (SI >2.5)
[7] = Table 2, chain #1 TRFP peptides, average cpm with antigen divided by cpm of T cells and APC alone, responding patients
[8] = patient 386, T cells primed with YZX
[9] = patient 522, T cells primed with native TRFP, SI 2.5 positive

Row | Substance | PI [1, 4] | SI [1, 4] | PI [1, 6] | SI [1, 7] | further results
1 | LLLDLSLTKVNATEPERTAMKKIQDC [Fel 18, TRFP chain 2 amino acids 23-48] | 466 | 6.3 |  |  | T cell response [2, 5]: respond at a similar level or better; RATIO IFN/IL-4 [3]: 0.5; RATIO IL-2/IL-4 [3]: 0.4; STIMULATION INDEX IFN-γ ([3]; PCR, vs medium control): 5.6; STIMULATION INDEX IL-2 ([3]; PCR, vs medium control): 4.6; STIMULATION INDEX IL-4 ([3]; PCR, vs medium control): 12.0
2 | Fel 16: TRFP chain 2 amino acids 1-22 (DTMRGALLVLALLVTQALGVKM) | 283 | 5.9 |  |  | 
3 | EITPAVKRDVDLFLTGT [Fel 1, TRFP chain 1 amino acids 1-17, amino acid 3 changed to T] |  |  | 392 | 5.6 | secondary T cell response of patient 131 [1]: respond
4 | Fel 32-3: TRFP chain 2 amino acids 16-24 (QALGVKMAE) | 270 | 3.7 |  |  | 
5 | Fel 1-4: TRFP chain 1 amino acids 6-17 (VKRDVDLFLTGT; UniProt P30438 28-39, looked up, fragment) |  |  | 816 | 9.6 | 
6 | Fel 33-1: TRFP chain 2 amino acids 26-36 (CPIFYDVFFAV) | 340 | 5.4 |  |  | 
7 | DVDLFLTGTPDEYVEQV [Fel 2, TRFP chain 1 amino acids 9-25] |  |  | 416 | 7.3 | T cell response [2, 8]: respond at a similar level or better; T cell response [2, 5]: respond at a similar level or better
8 | Fel 14-3: TRFP chain 1 amino acids 25-36 (VAQYKALPVVLE; UniProt P30438 47-58, looked up, fragment) |  |  | 621 | 6.9 | 
9 | Fel 4-1: TRFP chain 1 amino acids 37-52 (NARILKNCVDAKMTEE; UniProt P30438 59-74, looked up, fragment) |  |  | 822 | 9.9 | 
10 | Fel 1-5: TRFP chain 1 amino acids 8-17 (RDVDLFLTGT; UniProt P30438 30-39, looked up, fragment) |  |  | 286 | 5.2 | 
11 | Fel 4-2: TRFP chain 1 amino acids 37-49 (NARILKNCVDAKM; UniProt P30438 59-71, looked up, fragment) |  |  | 378 | 6.2 | 
12 | Fel 33-3: TRFP chain 2 amino acids 26-40 (CPIFYDVFFAVANGN) | 235 | 5.0 |  |  | 
13 | Fel 14-2: TRFP chain 1 amino acids 29-42 (KALPVVLENARILK; UniProt P30438 51-64, looked up, fragment) |  |  |  | 4.6 | T cell response [2, 8]: respond at a similar level or better; T cell response ([2]; patient 386, T cells primed with native TRFP): positively respond; T cell response [2, 5]: respond at a similar level or better; T cell response [2, 9]: positively respond
14 | Fel 33-2: TRFP chain 2 amino acids 26-38 (CPIFYDVFFAVAN) | 210 | 4.2 |  |  | 
15 | Fel 8: TRFP chain 1 amino acids 1-30 (EICPAVKRDVDLFLTGTPDEYVEQVAQYKA; UniProt P30438 23-52, looked up, fragment) |  |  |  |  | secondary T cell response of patient 131 [1]: respond
16 | Fel 17: TRFP chain 2 amino acids 12-33 (LLVTQALGVKMAETCPIFYDVF) |  |  |  |  | T cell response [2, 8]: respond at a similar level or better; T cell response ([2]; patient 519, cells primed with peptide YXZ): positive responses; T cell response [2, 5]: respond at a similar level or better; T cell response [2, 9]: positively respond
